Assay results reported in US20230304041A1, “DUAL PROMOTER-DRIVEN AND DUAL REPORTER-[…]-COV-2 REPLICONS AND METHODS OF USE” (Rosalind Franklin University of Medicine & Science, priority 2022, published 2023).

System: SARS2 replicon
Assay: microbe, parasite or virus in culture
Format: cell-based, SARS-CoV-2
Conditions: Severe acute respiratory syndrome coronavirus 2, HEK-293T, 24 hr, read-out: inhibition of fLuc

CCC(CC)COC(=O)[C@H](C)N[P@](=O)(OC[C@H]1O[C@@](C#N)(c2ccc3c(N)ncnn23)[C@H](O)[C@@H]1O)Oc1ccccc1 [Remdesivir]
inhibition at 10 µM: 70%
